Here are results for seven molecules from PubChem BioAssay (NCI).

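All cell lines were grown in 96-well plates and treated with compound for 48 hours. At the TGI there is no net growth.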

Some test systems named below: MDA-MB-231 breast; K-562 leukemia; SF-295 CNS; SNB-19 CNS; SK-MEL-2 melanoma; MDA-MB-435; NCI/ADR-RES ovarian; DU-145 prostate; MCF7 breast; HT29 colon; HCC-2998 colon; TK-10 renal; M14 melanoma; A549 NSCLC; MOLT-4 leukemia; SK-MEL-28 melanoma; EKVX NSCLC; NCI-H23 lung; A498 renal; HL-60(TB) leukemia.
What all share (test): inhibition of tumour cell growth, NCI panel, 48 h

For `COc1nc2c(c(=O)n1C)NC(C(O)C(O)CO)C=N2` (stereo not given), the TGI with MDA-MB-231 breast, with K-562 leukemia, with SF-295 CNS, with SNB-19 CNS, in the experiment with SK-MEL-2 melanoma and in the experiment on MDA-MB-435 was > 10 µM each time. Further, the TGI in the experiment with NCI/ADR-RES ovarian, in the experiment with DU-145 prostate, with MCF7 breast, with HT29 colon, in the experiment with HCC-2998 colon and in the experiment on TK-10 renal was > 10 µM in each case. Besides, the TGI in the experiment on M14 melanoma, in the experiment on A549 NSCLC, with MOLT-4 leukemia, in the experiment on SK-MEL-28 melanoma, with EKVX NSCLC and in the experiment on NCI-H23 lung was > 10 µM throughout. Besides, the TGI with A498 renal and in the experiment on HL-60(TB) leukemia was > 10 µM in each case.

As for `CCOC(=O)CC(N1CC1)N1CC1`, the TGI in the experiment with MDA-MB-231 breast, in the experiment with K-562 leukemia, in the experiment on SF-295 CNS, in the experiment with SNB-19 CNS, in the experiment with SK-MEL-2 melanoma and in the experiment on MDA-MB-435 was > 10 µM each time. In addition, the TGI in the experiment on NCI/ADR-RES ovarian, with DU-145 prostate, with MCF7 breast, with HT29 colon, in the experiment on HCC-2998 colon and in the experiment with TK-10 renal was > 10 µM in each case. Besides, the TGI with M14 melanoma, with A549 NSCLC, with MOLT-4 leukemia, in the experiment on SK-MEL-28 melanoma, with EKVX NSCLC and with NCI-H23 lung was > 10 µM each time. The TGI with A498 renal and with HL-60(TB) leukemia was > 10 µM in each case.

As to `O=C(O)c1cc(N(Cc2ccccc2O)Cc2cc(O)ccc2O)ccc1O`, the TGI with MDA-MB-231 breast, with K-562 leukemia, in the experiment on SF-295 CNS, with SNB-19 CNS, in the experiment with SK-MEL-2 melanoma and with MDA-MB-435 was > 100 µM throughout. Besides, the TGI in the experiment on NCI/ADR-RES ovarian, with DU-145 prostate, in the experiment on MCF7 breast, in the experiment on HT29 colon, in the experiment with HCC-2998 colon and in the experiment on TK-10 renal was > 100 µM throughout. Besides, the TGI in the experiment on M14 melanoma, with A549 NSCLC, in the experiment with MOLT-4 leukemia, with SK-MEL-28 melanoma, in the experiment with EKVX NSCLC and in the experiment with NCI-H23 lung was > 100 µM throughout. Besides, the TGI in the experiment with A498 renal and with HL-60(TB) leukemia was > 100 µM each time.

`COC(=O)c1ccc(NCc2cc(O)ccc2O)cc1O`: the TGI in the experiment with MDA-MB-231 breast is 25.7 µM; with K-562 leukemia, > 79.3 µM; in the experiment with SF-295 CNS, 27.2 µM; with SNB-19 CNS, 31.8 µM; with SK-MEL-2 melanoma, 37.4 µM; in the experiment on MDA-MB-435, 23.2 µM. Moreover, the TGI in the experiment on NCI/ADR-RES ovarian worked out at 10.8 µM; with DU-145 prostate, 25.3 µM; in the experiment with MCF7 breast, 21.6 µM; in the experiment with HT29 colon it was 34.4 µM; in the experiment on HCC-2998 colon, 26.7 µM; with TK-10 renal, 33.2 µM. In addition, the TGI in the experiment on M14 melanoma stood at 31.7 µM; with A549 NSCLC, 30.4 µM; with MOLT-4 leukemia it was 8.49 µM; with SK-MEL-28 melanoma it was 30 µM; in the experiment with EKVX NSCLC, 27 µM; in the experiment with NCI-H23 lung it was 27.9 µM. Besides, the results for the TGI in the experiment with A498 renal and in the experiment on HL-60(TB) leukemia were 58.8 µM and 4.21 µM, respectively.

Regarding `Cc1cc(=O)[nH]c2c3c(ccc12)OC(C)(C)C=C3`, the TGI in the experiment on MDA-MB-231 breast was > 100 µM; in the experiment on K-562 leukemia, > 100 µM; in the experiment on SF-295 CNS, > 80.4 µM; in the experiment on SNB-19 CNS, > 67.3 µM; in the experiment on SK-MEL-2 melanoma, > 100 µM; with MDA-MB-435, 4.9 µM. The TGI in the experiment on NCI/ADR-RES ovarian is > 100 µM; in the experiment on DU-145 prostate it was > 100 µM; in the experiment on MCF7 breast, > 100 µM; in the experiment with HT29 colon it was > 56.4 µM; with HCC-2998 colon it was > 96.1 µM; with TK-10 renal it was > 100 µM. The TGI in the experiment with M14 melanoma was > 100 µM; in the experiment on A549 NSCLC, > 100 µM; in the experiment on MOLT-4 leukemia, > 100 µM; in the experiment with SK-MEL-28 melanoma, > 100 µM; in the experiment with EKVX NSCLC, > 63.7 µM; with NCI-H23 lung, > 100 µM. Further, the TGI in the experiment on A498 renal is > 87.7 µM; in the experiment on HL-60(TB) leukemia it was > 100 µM.

`COc1ccc(Nc2nc3ccccc3nc2C(=O)O)cc1`: the TGI in the experiment with MDA-MB-231 breast, in the experiment on K-562 leukemia, in the experiment with SF-295 CNS, in the experiment with SNB-19 CNS, with SK-MEL-2 melanoma and with MDA-MB-435 was > 100 µM in each case. The TGI with NCI/ADR-RES ovarian was > 100 µM; in the experiment on DU-145 prostate, > 100 µM; in the experiment on MCF7 breast, > 100 µM; in the experiment on HT29 colon, > 100 µM; with HCC-2998 colon, 23.1 µM; with TK-10 renal, > 100 µM. Moreover, the TGI with M14 melanoma, in the experiment on A549 NSCLC, in the experiment on MOLT-4 leukemia, in the experiment on SK-MEL-28 melanoma, with EKVX NSCLC and in the experiment with NCI-H23 lung was > 100 µM each time. Also, the TGI with A498 renal and in the experiment on HL-60(TB) leukemia was > 100 µM in each case.

For `Oc1[nH]c2ccccc2c1N=NC(=S)N1CCCC1`, the TGI with MDA-MB-231 breast was 55.7 µM; with K-562 leukemia, > 42.7 µM; in the experiment with SF-295 CNS, 17.1 µM; in the experiment on SNB-19 CNS, > 43.8 µM; in the experiment with SK-MEL-2 melanoma it was 33.2 µM; in the experiment on MDA-MB-435 it was 29.5 µM. In addition, the TGI in the experiment on NCI/ADR-RES ovarian is 6.03 µM; with DU-145 prostate, > 100 µM; in the experiment with MCF7 breast it was > 56.6 µM; with HT29 colon it was > 53.5 µM; in the experiment on HCC-2998 colon it was 23.6 µM; with TK-10 renal, 36.2 µM. Further, the TGI in the experiment on M14 melanoma was 8.44 µM; with A549 NSCLC, 13.6 µM; with MOLT-4 leukemia it was 5.75 µM; in the experiment with SK-MEL-28 melanoma, > 100 µM; with EKVX NSCLC, > 65.3 µM; in the experiment on NCI-H23 lung, 34.5 µM. For the same molecule, the figures for the TGI with A498 renal and with HL-60(TB) leukemia were 19.2 µM and 8.83 µM, respectively.
